Data reported in PubChem BioAssay AID1259407 (Chemical Carcinogenesis Research Information System (CCRIS), 2018).
Active and inactive are the calls of the source. No rule for the calls is given here.

Tested on: CCRIS mutagenicity, Ames/micronucleus/aberration tests
Test: CCRIS mutagenicity studies
[1] = Test System: AMES SALMONELLA TYPHIMURIUM, Strain/Indicator: TA98, Metabolic Activation: NONE, Method: PREINCUBATION
[2] = Test System: AMES SALMONELLA TYPHIMURIUM, Strain/Indicator: TA100, Metabolic Activation: NONE, Method: PREINCUBATION
[3] = Test System: AMES SALMONELLA TYPHIMURIUM, Strain/Indicator: TA1535, Metabolic Activation: NONE, Method: PREINCUBATION
[4] = Test System: AMES SALMONELLA TYPHIMURIUM, Strain/Indicator: TA1537, Metabolic Activation: NONE, Method: PREINCUBATION
[5] = Test System: AMES SALMONELLA TYPHIMURIUM, Strain/Indicator: TA98, Metabolic Activation: NONE, Method: STANDARD PLATE
[6] = Test System: AMES SALMONELLA TYPHIMURIUM, Strain/Indicator: TA98, Metabolic Activation: HAMSTER, LIVER, S-9, AROCLOR 1254 (10%), Method: PREINCUBATION
[7] = Test System: AMES SALMONELLA TYPHIMURIUM, Strain/Indicator: TA98, Metabolic Activation: RAT, LIVER, S-9, AROCLOR 1254 (10%), Method: PREINCUBATION
[8] = Test System: AMES SALMONELLA TYPHIMURIUM, Strain/Indicator: TA100, Metabolic Activation: HAMSTER, LIVER, S-9, AROCLOR 1254 (10%), Method: PREINCUBATION
[9] = Test System: AMES SALMONELLA TYPHIMURIUM, Strain/Indicator: TA100, Metabolic Activation: RAT, LIVER, S-9, AROCLOR 1254 (10%), Method: PREINCUBATION
[10] = Test System: AMES SALMONELLA TYPHIMURIUM, Strain/Indicator: TA1535, Metabolic Activation: HAMSTER, LIVER, S-9, AROCLOR 1254 (10%), Method: PREINCUBATION
[11] = Test System: AMES SALMONELLA TYPHIMURIUM, Strain/Indicator: TA1535, Metabolic Activation: RAT, LIVER, S-9, AROCLOR 1254 (10%), Method: PREINCUBATION
[12] = Test System: AMES SALMONELLA TYPHIMURIUM, Strain/Indicator: TA98, Metabolic Activation: RAT, LIVER, S-9, AROCLOR 1254, Method: STANDARD PLATE
[13] = Test System: AMES SALMONELLA TYPHIMURIUM, Strain/Indicator: TA100, Metabolic Activation: NONE, Method: STANDARD PLATE
[14] = Test System: AMES SALMONELLA TYPHIMURIUM, Strain/Indicator: TA1538, Metabolic Activation: NONE, Method: STANDARD PLATE

In the case of `O=[N+]([O-])c1c(Cl)c(Cl)cc(Cl)c1Cl`, the mutagenic call (End Point: IN VITRO CHROMOSOMAL ABERRATIONS, Test System: CHINESE HAMSTER OVARY CELLS, Metabolic Activation: NONE) is reported as “inactive; negative”, the mutagenic call (End Point: IN VITRO CHROMOSOMAL ABERRATIONS, Test System: CHINESE HAMSTER OVARY CELLS, Metabolic Activation: RAT, LIVER, S-9, AROCLOR 1254) is reported as “inactive; negative” and the mutagenic call (Test System: AMES SALMONELLA TYPHIMURIUM, Strain/Indicator: TA98, Metabolic Activation: HAMSTER, LIVER, S-9, AROCLOR 1254, Method: PREINCUBATION) is reported as “inactive; negative”. For the same compound, the mutagenic call [1] was “inactive; negative”, the mutagenic call (Test System: AMES SALMONELLA TYPHIMURIUM, Strain/Indicator: TA98, Metabolic Activation: RAT, LIVER, S-9, AROCLOR 1254, Method: PREINCUBATION) was “inactive; negative” and the mutagenic call (Test System: AMES SALMONELLA TYPHIMURIUM, Strain/Indicator: TA100, Metabolic Activation: HAMSTER, LIVER, S-9, AROCLOR 1254, Method: PREINCUBATION) was “inactive; negative”. The mutagenic call [2] was “inactive; negative”, the mutagenic call (Test System: AMES SALMONELLA TYPHIMURIUM, Strain/Indicator: TA100, Metabolic Activation: RAT, LIVER, S-9, AROCLOR 1254, Method: PREINCUBATION) was “inactive; negative” and the mutagenic call (Test System: AMES SALMONELLA TYPHIMURIUM, Strain/Indicator: TA1535, Metabolic Activation: HAMSTER, LIVER, S-9, AROCLOR 1254, Method: PREINCUBATION) was “inactive; negative”. For the same compound, the mutagenic call [3] was “inactive; negative”, the mutagenic call (Test System: AMES SALMONELLA TYPHIMURIUM, Strain/Indicator: TA1535, Metabolic Activation: RAT, LIVER, S-9, AROCLOR 1254, Method: PREINCUBATION) was “inactive; negative” and the mutagenic call (Test System: AMES SALMONELLA TYPHIMURIUM, Strain/Indicator: TA1537, Metabolic Activation: HAMSTER, LIVER, S-9, AROCLOR 1254, Method: PREINCUBATION) was “inactive; negative”. The mutagenic call [4] was “inactive; negative” and the mutagenic call (Test System: AMES SALMONELLA TYPHIMURIUM, Strain/Indicator: TA1537, Metabolic Activation: RAT, LIVER, S-9, AROCLOR 1254, Method: PREINCUBATION) was “inactive; negative”.
With `[O-][n+]1cc2ncccc2cn1` the mutagenic call [1] was “inactive; negative”, the mutagenic call (Test System: AMES SALMONELLA TYPHIMURIUM, Strain/Indicator: TA98, Metabolic Activation: RAT, LIVER, S-9, PCB, Method: PREINCUBATION) was “inactive; negative” and the mutagenic call [2] was “inactive; negative”. For the same compound, the mutagenic call (Test System: AMES SALMONELLA TYPHIMURIUM, Strain/Indicator: TA100, Metabolic Activation: RAT, LIVER, S-9, PCB, Method: PREINCUBATION) was “inactive; negative”.
In the case of `Clc1cccc(-c2nc3ccccc3o2)c1`, the mutagenic call [5] is reported as “inactive; negative”.
`Oc1ccc2ccccc2c1N=Nc1ccccc1` was tested, and the mutagenic call (End Point: IN VITRO CHROMOSOMAL ABERRATIONS, Test System: CHO CELLS, Metabolic Activation: NONE) was “inactive; negative”, the mutagenic call (End Point: IN VITRO CHROMOSOMAL ABERRATIONS, Test System: CHO CELLS, Metabolic Activation: RAT, LIVER, S-9, AROCLOR 1254) was “inactive; negative” and the mutagenic call (Test System: AMES SALMONELLA TYPHIMURIUM, Strain/Indicator: TA97, Metabolic Activation: HAMSTER, LIVER, S-9, AROCLOR 1254 (10%), Method: PREINCUBATION) was “inactive; negative”. The mutagenic call (Test System: AMES SALMONELLA TYPHIMURIUM, Strain/Indicator: TA97, Metabolic Activation: NONE, Method: PREINCUBATION) was “inactive; negative”, the mutagenic call (Test System: AMES SALMONELLA TYPHIMURIUM, Strain/Indicator: TA97, Metabolic Activation: RAT, LIVER, S-9, AROCLOR 1254 (10%), Method: PREINCUBATION) was “active; positive” and the mutagenic call [6] was “inactive; negative”. The mutagenic call [1] was “inactive; negative”, the mutagenic call (Test System: AMES SALMONELLA TYPHIMURIUM, Strain/Indicator: TA98, Metabolic Activation: RAT, BLADDER, S-9, PCB, Method: FLUCTUATION TEST) was “inactive; negative” and the mutagenic call [7] was “active; positive”. For the same compound, the mutagenic call [8] was “inactive; negative”, the mutagenic call [2] was “inactive; negative” and the mutagenic call (Test System: AMES SALMONELLA TYPHIMURIUM, Strain/Indicator: TA100, Metabolic Activation: RAT, BLADDER, S-9, PCB, Method: FLUCTUATION TEST) was “inactive; negative”. The mutagenic call [9] was “inactive; negative”, the mutagenic call [10] was “inactive; negative” and the mutagenic call [3] was “inactive; negative”. For the same compound, the mutagenic call [11] was “inactive; negative” and the mutagenic call (Test System: AMES SALMONELLA TYPHIMURIUM, Strain/Indicator: TA1538, Metabolic Activation: HAMSTER, LIVER, S-9, AROCLOR 1254, Method: STANDARD PLATE) was “active; positive”.
With `CCCCCCCCSCn1cc[n+](C)c1` the mutagenic call [5] was “inactive; negative”, the mutagenic call [12] was “inactive; negative” and the mutagenic call [13] was “inactive; negative”. For the same compound, the mutagenic call (Test System: AMES SALMONELLA TYPHIMURIUM, Strain/Indicator: TA100, Metabolic Activation: RAT, LIVER, S-9, AROCLOR 1254, Method: STANDARD PLATE) was “inactive; negative”, the mutagenic call (Test System: AMES SALMONELLA TYPHIMURIUM, Strain/Indicator: TA1535, Metabolic Activation: NONE, Method: STANDARD PLATE) was “inactive; negative” and the mutagenic call (Test System: AMES SALMONELLA TYPHIMURIUM, Strain/Indicator: TA1535, Metabolic Activation: RAT, LIVER, S-9, AROCLOR 1254, Method: STANDARD PLATE) was “inactive; negative”. The mutagenic call (Test System: AMES SALMONELLA TYPHIMURIUM, Strain/Indicator: TA1537, Metabolic Activation: NONE, Method: STANDARD PLATE) was “inactive; negative”, the mutagenic call (Test System: AMES SALMONELLA TYPHIMURIUM, Strain/Indicator: TA1537, Metabolic Activation: RAT, LIVER, S-9, AROCLOR 1254, Method: STANDARD PLATE) was “inactive; negative” and the mutagenic call [14] was “inactive; negative”. For the same compound, the mutagenic call (Test System: AMES SALMONELLA TYPHIMURIUM, Strain/Indicator: TA1538, Metabolic Activation: RAT, LIVER, S-9, AROCLOR 1254, Method: STANDARD PLATE) was “inactive; negative”.
In the case of `COc1cccc2c1C(=O)c1c(O)c3c(c(O)c1C2=O)C[C@@](O)(C(C)=O)C[C@@H]3O`, the mutagenic call [5] is reported as “active; positive”, the mutagenic call [12] is reported as “active; positive” and the mutagenic call [13] is reported as “inactive; negative”. For the same compound, the mutagenic call [14] was “inactive; negative”.
For `CN(C)C(=S)N(C)C`, the mutagenic call [6] was “inactive; negative”, the mutagenic call [1] was “inactive; negative” and the mutagenic call [7] was “inactive; negative”. For the same compound, the mutagenic call [8] was “inactive; negative”, the mutagenic call [2] was “inactive; negative” and the mutagenic call [9] was “inactive; negative”. For the same compound, the mutagenic call [10] was “inactive; negative”, the mutagenic call [3] was “inactive; negative” and the mutagenic call [11] was “inactive; negative”. The mutagenic call (Test System: AMES SALMONELLA TYPHIMURIUM, Strain/Indicator: TA1537, Metabolic Activation: HAMSTER, LIVER, S-9, AROCLOR 1254 (10%), Method: PREINCUBATION) was “inactive; negative”, the mutagenic call [4] was “inactive; negative” and the mutagenic call (Test System: AMES SALMONELLA TYPHIMURIUM, Strain/Indicator: TA1537, Metabolic Activation: RAT, LIVER, S-9, AROCLOR 1254 (10%), Method: PREINCUBATION) was “inactive; negative”.
